Experimental data: patent publication US20090325956A1, “Aromatic amine derivative and use thereof” (priority 2006, published 2009)
Where a name gives a salt, the structure may show the parent alone.

Molecular target: T1, SCD (rat liver microsome) (Rattus norvegicus, UniProt P07308)
T1 construct: an enzyme reaction using rat liver microsome (20 μg) was performed for 15 min; from tissue; host or cells: rat liver microsome fraction
T1 sequence (P07308 1-358): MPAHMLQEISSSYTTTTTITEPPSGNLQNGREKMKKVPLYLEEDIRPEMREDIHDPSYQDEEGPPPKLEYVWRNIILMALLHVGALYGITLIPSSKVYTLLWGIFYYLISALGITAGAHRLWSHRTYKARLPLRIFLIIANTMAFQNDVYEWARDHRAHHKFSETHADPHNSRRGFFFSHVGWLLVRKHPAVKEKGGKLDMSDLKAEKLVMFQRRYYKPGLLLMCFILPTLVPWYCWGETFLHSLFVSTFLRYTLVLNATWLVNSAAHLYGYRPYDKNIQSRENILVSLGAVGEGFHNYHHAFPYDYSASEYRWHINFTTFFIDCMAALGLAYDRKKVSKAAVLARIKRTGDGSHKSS
Assay: Measurement of SCD inhibitory activity using microsome (TLC detection system)
Assay type: biochemical
Settings: test compound 10 μM, rat liver microsome (20 μg), [14C] stearoyl-CoA, 15 min; for inhibition at 10 µM: read-out: SCD activity inhibitory rate (%)
Description: “Test Method” Measurement of SCD Inhibitory Activity Using Microsome (TLC Detection System)
A test compound (10 mM) diluted with DMSO in advance was secondarily diluted to 3/1000 with 3× buffer (300 mmol/L NaH2PO4 [pH 7.4], 450 mM KCl, 30 mM NaF, 9 mM MgCl2, 4.5 mM glutathione [reduced form], 0.3% BSA [fatty acid free, SIGMA]). The test compound (10 μL) diluted with the assay buffer was dispensed to a PP 96-deep well block, and a microsome fraction (10 μL) diluted with a microsome buffer was added thereto. The enzyme reaction was started by the addition of 10 μL of [^14C] stearoyl-CoA (American Radiolabeled Chemicals [ARC], Inc.) diluted to 10 μCi/mL with 9 mmol/L NADH. For evaluation of the compound, an enzyme reaction using rat liver microsome (20 μg) was performed for 15 min. The reaction was quenched by the addition of 10 μL of 2.5N NaOH, a plate seal was applied, and the reaction mixture was incubated overnight in a dry heater set to 65° C. to allow saponification. Solvent extraction of fatty acid was based on the Bligh&Dyer method (1). Formic acid:methanol:chloroform (1:6:3) (200 μL) was added, the state of single layer was maintained, the mixture was sufficiently stirred, and pure water (120 μL) was added to allow separation into two layers. The lower chloroform layer (10 μL) was spotted on reversed-phase TLC plate (RP-18, 1154230001, Merck Japan, Ltd.) and developed with acetonitrile:pure water:acetic acid (95:4.5:0.5). The TLC plate was dried and transferred onto an Imaging Plate (Fuji Photo Film Co., Ltd.) for not less than 5 hr. For detection, BAS-5000 (Fuji Photo Film Co., Ltd) was used and the obtained spot images were converted to numerical values using Multi Gauge Ver2.3 (Fuji Photo Film Co., Ltd), based on which the SCD activity inhibitory rate (%) was determined.

| SMILES | inhibition at 10 µM [%] | SCD activity inhibitory rate (%) |
| --- | --- | --- |
| O=C(Nc1ccc(CO)cn1)N1CCOC(COc2cc(F)ccc2Cl)C1 (centres unmarked) [Example 212, 2-[(2-chloro-5-fluorophenoxy)methyl]-N-[5-(hydroxymethyl)pyridin-2-yl]morpholine-4-carboxamide] | 97 | – |
| NC(=O)c1ccsc1NC(=O)c1cccc(COc2cc(Cl)ccc2Cl)c1 [Example 93, 2-({3-[(2,5-dichlorophenoxy)methyl]benzoyl}amino)thiophene-3-carboxamide] | 83 | – |
| Cc1cc(C)nc(NC(=O)c2ccc(Cn3cnc4ccccc43)cc2)c1 [Example 108, 4-(1H-benzimidazol-1-ylmethyl)-N-(4,6-dimethylpyridin-2-yl)benzamide] | 97 | – |
| Cc1cc(C)nc(NC(=O)c2cc(COc3cc(Cl)ccc3Cl)ccn2)c1 [Example 113, 4-[(2,5-dichlorophenoxy)methyl]-N-(4,6-dimethylpyridin-2-yl)pyridine-2-carboxamide] | 86 | – |
| Cc1nn(Cc2ccccc2)c2sc(C(=O)Nc3ccc(Cn4cccn4)cc3)cc12 [Example 118, 1-benzyl-3-methyl-N-[4-(1H-pyrazol-1-ylmethyl)phenyl]-1H-thieno[2,3-c]pyrazole-5-carboxamide] | 86 | – |
| O=C(Nc1ccc(Cn2cccn2)cc1)N1CCCC(COc2cc(Cl)ccc2Cl)C1 (centres unmarked) [Example 167, 3-[(2,5-dichlorophenoxy)methyl]-N-[4-(1H-pyrazol-1-ylmethyl)phenyl]piperidine-1-carboxamide] | 85 | – |
| O=C(Nc1cnn(CCO)c1)c1cc(COc2ccccc2Cl)ccn1 [Example 169, 4-[(2-chlorophenoxy)methyl]-N-[1-(2-hydroxyethyl)-1H-pyrazol-4-yl]pyridine-2-carboxamide] | 88 | – |
| Cc1cc(C)nc(NC(=O)N2CCOC(COc3ccccc3F)C2)c1 (centres unmarked) [Example 59, N-(4,6-dimethylpyridin-2-yl)-2-[(2-fluorophenoxy)methyl]morpholine-4-carboxamide trifluoroacetate] | 88 | – |
| CCc1cccc(NC(=O)N2CCOC(COc3cc(F)ccc3Cl)C2)n1 (centres unmarked) [Example 202, 2-[(2-chloro-5-fluorophenoxy)methyl]-N-(6-ethylpyridin-2-yl) morpholine-4-carboxamide] | – | 92 |

Other lines, results leading:

| inhibition at 10 µM [%] | SCD activity inhibitory rate (%) | SMILES |
| --- | --- | --- |
| 97 | – | O=C(Nc1cnn(Cc2ccc(F)cc2)c1)c1cccc(COc2ccccc2)c1 [Example 149, N-[1-(4-fluorobenzyl)-1H-pyrazol-4-yl]-3-(phenoxymethyl)benzamide] |
| 100 | – | O=C(Nc1ccc(Cn2cccn2)cc1)c1ccnc(COc2cc(Cl)ccc2Cl)c1 [Example 116, 2-[(2,5-dichlorophenoxy)methyl]-N-[4-(1H-pyrazol-1-ylmethyl)phenyl]isonicotinamide] |
| 93 | – | CN(Cc1cccc(C(=O)Nc2cnn(Cc3ccc(F)cc3)c2)c1)c1ccccc1Cl [Example 225, 3-{[(2-chlorophenyl)(methyl)amino]methyl}-N-[1-(4-fluorobenzyl)-1H-pyrazol-4-yl]benzamide] |
| 93 | – | O=C(Nc1cnn(Cc2ccc(F)cc2)c1)c1ccc(Cn2cnc3ccccc32)cc1 [Example 99, 4-(1H-benzimidazol-1-ylmethyl)-N-[1-(4-fluorobenzyl)-1H-pyrazol-4-yl]benzamide] |
| 99 | – | O=C(Nc1cnn(Cc2ccc(F)cc2)c1)c1cccc(CNc2ccccc2Cl)c1 [Example 201, 3-{[(2-chlorophenyl)amino]methyl}-N-[1-(4-fluorobenzyl)-1H-pyrazol-4-yl]benzamide] |
